Test results reported in ChEMBL document CHEMBL3817804 (Medchemcomm, 2016).

Assays:
[1] = molecular target: T1, Solute carrier family 15 member 1 (Oryctolagus cuniculus, UniProt P36836); experiment: Inhibition of [3H]-D-Phe-L-Gln uptake at rabbit PepT1 expressed in Xenopus laevis oocytes at pH 5.5 measured after 1 hr by scintillation counting method; type: cell-based
T1 sequence (P36836 whole entry): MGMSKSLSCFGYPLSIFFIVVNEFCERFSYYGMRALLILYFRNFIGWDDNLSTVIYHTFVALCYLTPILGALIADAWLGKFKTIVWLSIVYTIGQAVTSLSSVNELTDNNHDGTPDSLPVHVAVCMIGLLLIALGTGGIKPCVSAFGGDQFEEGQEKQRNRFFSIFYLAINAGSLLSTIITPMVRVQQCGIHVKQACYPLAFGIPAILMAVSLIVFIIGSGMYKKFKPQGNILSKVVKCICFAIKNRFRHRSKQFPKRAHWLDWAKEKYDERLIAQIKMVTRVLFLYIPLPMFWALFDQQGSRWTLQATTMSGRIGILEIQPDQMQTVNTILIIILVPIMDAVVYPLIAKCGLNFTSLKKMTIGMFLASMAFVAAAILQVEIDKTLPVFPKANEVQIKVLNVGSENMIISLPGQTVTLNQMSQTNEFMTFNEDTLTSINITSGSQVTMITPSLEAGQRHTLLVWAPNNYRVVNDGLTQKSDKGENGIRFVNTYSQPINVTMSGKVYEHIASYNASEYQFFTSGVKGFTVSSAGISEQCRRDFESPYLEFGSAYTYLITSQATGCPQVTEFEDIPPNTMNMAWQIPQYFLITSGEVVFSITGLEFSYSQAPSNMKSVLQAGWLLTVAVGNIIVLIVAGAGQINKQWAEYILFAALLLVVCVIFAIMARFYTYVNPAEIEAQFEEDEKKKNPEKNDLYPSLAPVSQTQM

[2] = molecular target: T1, Solute carrier family 15 member 1; experiment: Substrate activity at rabbit PepT1 expressed in Xenopus laevis oocytes assessed as drug transportation across membrane under holding potential at -30 mV at 2 mM by two electrode voltage-clamp method; type: ADME, cell-based; conditions: 2000 µM

C/C=C/C[C@H](C)[C@@H](OC(=O)CNC(=O)C[C@@H](NC(=S)[C@H](C)N)C(=O)O)[C@@H]1C(=O)N[C@@H](CC)C(=O)N(C)CC(=O)N(C)[C@H](CC(C)C)C(=O)N[C@H](C(C)C)C(=O)N(C)[C@H](CC(C)C)C(=O)N[C@H](C)C(=O)N[C@H](C)C(=O)N(C)[C@H](CC(C)C)C(=O)N(C)[C@H](CC(C)C)C(=O)N(C)[C@H](C(C)C)C(=O)N1C
Ki [1]: 1110 µM
Activity [2]: 322 nA
